Laboratory results published in patent US10961309B2, “Reducing systemic regulatory T cell levels or activity for treatment of disease and injury of the CNS” (Yeda Research and Development Co. Ltd, priority 2014, dated 2021).
“Also recorded” adds a separate entry of the source.

Columns and labels:
[1] = test system: IFN-γ-expressing immune cells in the CP; assay: Flow cytometry of CP IFN-γ-expressing immune cells; format: in vivo, mouse; details: weekly-GA, 5XFAD AD-Tg mice, end of 1st week of regimen
Procedure: (§1) Mice were transcardially perfused with PBS, and tissues were treated as previously described (Baruch et al, 2013). Brains were dissected and the different brain regions were removed under a dissecting microscope (Stemi DV4; Zeiss) in PBS, and tissues were dissociated using the gentleMACS™ dissociator (Miltenyi Biotec). Choroid plexus tissues were isolated from the lateral, third and fourth ventricles of the brain, incubated at 37° C. for 45 min in PBS (with Ca^2+/Mg^2+) containing 400 U/ml collagenase type IV (Worthington Biochemical Corporation), and then manually homogenized by pipetting. Spleens were mashed with the plunger of a syringe and treated with ACK (ammonium chloride potassium) lysing buffer to remove erythrocytes. In all cases, samples were stained according to the manufacturers' protocols. All samples were filtered through a 70 μm nylon mesh, and blocked with anti-Fc CD16/32 (1:100; BD Biosciences). For intracellular staining of IFN-γ, the cells were incubated with […] (10 ng/ml; Sigma-Aldrich) and ionomycin (250 ng/ml; Sigma-Aldrich) for 6 h, and Brefeldin-A (10 μg/ml; Sigma-Aldrich) was added for the last 4 h. Intracellular labeling of cytokines was done with BD Cytofix/Cytoperm™ Plus fixation/permeabilization kit (cat. no. 555028). […] Cells were analyzed on an LSRII cytometer (BD Biosciences) using FlowJo software. […]

[2] = test system: CD11bhigh/CD45high mo-MΦ, CD4+ T cells, Foxp3+ Tregs in the brain; assay: Flow cytometry of brain parenchyma / hippocampus; format: in vivo, mouse
Procedure: Mice were transcardially perfused with PBS, and tissues were treated as previously described (Baruch et al, 2013). Brains were dissected and the different brain regions were removed under a dissecting microscope (Stemi DV4; Zeiss) in PBS, and tissues were dissociated using the gentleMACS™ dissociator (Miltenyi Biotec). Choroid plexus tissues were isolated from the lateral, third and fourth ventricles of the brain, incubated at 37° C. for 45 min in PBS (with Ca^2+/Mg^2+) containing 400 U/ml collagenase type IV (Worthington Biochemical Corporation), and then manually homogenized by pipetting. Spleens were mashed with the plunger of a syringe and treated with ACK (ammonium chloride potassium) lysing buffer to remove erythrocytes. In all cases, samples were stained according to the manufacturers' protocols. All samples were filtered through a 70 μm nylon mesh, and blocked with anti-Fc CD16/32 (1:100; BD Biosciences). For intracellular staining of IFN-γ, the cells were incubated with […] (10 ng/ml; Sigma-Aldrich) and ionomycin (250 ng/ml; Sigma-Aldrich) for 6 h, and Brefeldin-A (10 μg/ml; Sigma-Aldrich) was added for the last 4 h. Intracellular labeling of cytokines was done with BD Cytofix/Cytoperm™ Plus fixation/permeabilization kit (cat. no. 555028). For Treg staining, an eBioscience FoxP3 staining buffer set (cat. no. 00-5523-00) was used. The following fluorochrome-labeled monoclonal antibodies were purchased from BD Pharmingen, BioLegend, R&D Systems, or eBiosciences, and used according to the manufacturers' protocols: PE or Alexa Fluor 450-conjugated anti-CD4; PE-conjugated anti-CD25; PerCP-Cy5.5-conjugated anti-CD45; FITC-conjugated anti-TCRβ; APC-conjugated anti-IFN-γ; APC-conjugated anti-FoxP3; Brilliant-violet-conjugated anti-CD45. Cells were analyzed on an LSRII cytometer (BD Biosciences) using FlowJo software. In each experiment, relevant negative control groups, positive controls, and single stained samples for each tissue were used to identify the populations of interest and to exclude other populations.

[3] = test system: hippocampal cytokine and neurotropic factor mRNA; assay: Brain parenchyma / hippocampus mRNA expression by RT-qPCR; format: in vivo, mouse
Procedure: Total RNA of the hippocampal dentate gyrus (DG) was extracted with TRI Reagent (Molecular Research Center) and purified from the lysates using an RNeasy Kit (Qiagen). Total RNA of the choroid plexus was extracted using an RNA MicroPrep Kit (Zymo Research). mRNA (1 μg) was converted into cDNA using a High Capacity cDNA Reverse Transcription Kit (Applied Biosystems). The expression of specific mRNAs was assayed using fluorescence-based quantitative real-time PCR (RT-qPCR). RT-qPCR reactions were performed using Fast-SYBR PCR Master Mix (Applied Biosystems). Quantification reactions were performed in triplicate for each sample using the standard curve method. Peptidylprolyl isomerase A (ppia) was chosen as a reference (housekeeping) gene. The amplification cycles were 95° C. for 5 s, 60° C. for 20 s, and 72° C. for 15 s. At the end of the assay, a melting curve was constructed to evaluate the specificity of the reaction. For ifn-γ and ppia gene analysis, the cDNA was pre-amplified in 14 PCR cycles with non-random PCR primers, thereby increasing the sensitivity of the subsequent real-time PCR analysis, according to the manufacturer's protocol (PreAmp Master Mix Kit; Applied Biosystems). mRNA expression was determined using TaqMan RT-qPCR, according to the manufacturer's instructions (Applied Biosystems). All RT-qPCR reactions were performed and analyzed using StepOne software V2.2.2 (Applied Biosystems). The following TaqMan Assays-on-Demand™ probes were used: Mm02342430_g1 (ppia) and Mm01168134_m1 (ifn-γ).
For all other genes examined, the following primers were used: […]

[4] = test system: APP/PS1 mouse model of AD; details: weekly administration regimen (Butovsky et al, 2006); cited from earlier work
Foxp3+ Tregs = assay: Conditional ablation of Treg by DTx, confirmed by flow cytometry; format: in vivo, mouse
Procedure: as §1

[5] = weekly-GA vs untreated AD-Tg mice, age 6 m
[6] = AD-Tg/DTR+ mice, 3 weeks after last DTx injection

| Substance | IFN-γ-producing cells at the CP [1] | numbers of CD11bhighCD45high-expressing cells in the hippocampus ([2]; weekly-GA, AD-Tg non-chimeric mice, 2nd week of regimen) | neuroinflammation ([3]; weekly-GA 100 μg s.c. over 4 weeks, 5XFAD AD-Tg mice, hippocampus) | hippocampal mRNA of anti-inflammatory cytokines IL-10 and TGF-β [3, 5] | hippocampal mRNA of neurotropic factors IGF-1 and BDNF [3, 5] | hippocampal mRNA of pro-inflammatory cytokines TNF-α, IL-1β and IL-12p40 [3, 5] | effect in the APP/PS1 mouse model of AD [4] | depletion of the GFP-expressing FoxP3+ CD4+ Treg cells (Foxp3+ Tregs; blood and spleen, Foxp3.LuciDTR mice, DTx 8 ng/g i.p. daily 4 consecutive days) [%] | depletion of Foxp3+ cells (Foxp3+ Tregs; splenocytes from AD-Tg/Foxp3-DTR+/− mice, 1 day after last injection, DTx i.p. 4 days) [%] | Foxp3+ Tregs among CD4+ T cells in the brain [2, 6] | numbers of CD45high/CD11bhigh mo-MΦ and CD4+ T cells in brain parenchyma [2, 6] | mRNA expression levels of pro-inflammatory cytokines (il-12p40, tnf-α) ([3]; AD-Tg/DTR+ mice, brain parenchyma, 3 weeks after last DTx injection) | foxp3 and il10 mRNA expression ([3]; AD-Tg/DTR+ mice, hippocampus, 3 weeks after last DTx injection) |
| --- | --- | --- | --- | --- | --- | --- | --- | --- | --- | --- | --- | --- | --- |
| Glatiramer acetate [GA] | increase | increased numbers | reduced neuroinflammation | elevation | elevation | reduced expression | therapeutic effect | – | – | – | – | – | – |
| Diphtheria toxin [DTx] | – | – | – | – | – | – | – | > 99 | ~99 | marked enrichment | increased numbers; also recorded: elevated numbers | reduced mRNA expression levels | increased expression |
